Biological target: T1, human oxytocin receptor (Homo sapiens, UniProt P30559)
T1 construct: host or cells: CHO cells, stably transfected (pcDNA3.1 vector)
T1 sequence (P30559 1-389): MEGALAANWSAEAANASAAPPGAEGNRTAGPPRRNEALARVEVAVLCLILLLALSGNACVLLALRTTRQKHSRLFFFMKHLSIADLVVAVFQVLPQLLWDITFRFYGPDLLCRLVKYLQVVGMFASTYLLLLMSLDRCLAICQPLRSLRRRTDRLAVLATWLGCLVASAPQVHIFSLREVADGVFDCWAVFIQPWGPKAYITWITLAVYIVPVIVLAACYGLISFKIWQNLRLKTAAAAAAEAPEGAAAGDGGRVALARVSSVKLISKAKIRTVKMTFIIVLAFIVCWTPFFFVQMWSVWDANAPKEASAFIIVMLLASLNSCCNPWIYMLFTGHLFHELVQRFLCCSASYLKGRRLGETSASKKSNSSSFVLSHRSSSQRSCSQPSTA
Assay: Oxytocin binding in CHO cell membranes expressing human oxytocin receptors ([3H]oxytocin radioligand binding)
Details: 100 nM; for inhibition at 0.1 µM: read-out: OT % inhibition @ 100 nM
Method: Oxytocin Binding in Chinese Hamster Ovary Cell Membranes Expressing Human Oxytocin Receptors
Cell Culture medium (e.g. 30 mL for 1:30 split) is immediately added and mixed well to inactivate trypsin. 1 mL of detached cells is added to new culture flasks containing fresh Cell Culture medium (e.g. into 25 mL per T-150 flask), and mixed gently. The cells are incubated at 37° C. in 5% CO2. The medium is changed at 3 to 4 days interval (or as appropriate). […] All steps are done under sterile conditions.
The cells are washed twice gently with Hank's Balanced Salt solution (e.g., use 10 mL per T-150 flask). […] The contents are transferred to centrifuge tubes (50 mL size) kept in ice bath. All subsequent steps are done at 4° C. The tubes are centrifuged at 300×g for 15 min (1380 rpm on SORVAL, Model RT6000D, using rotor for 50 mL tubes). The supernatant is discarded and the cells suspended in homogenizing buffer (10 mM Tris-HCl containing 0.25 M sucrose and 1 mM EDTA, pH 7.4) ensuring that the volume of the buffer is about ten times the volume of the cell pellet. The cells are pooled into a centrifuge tube (50 mL) and homogenized with a Polytron at setting 6 for 10 sec. The homogenate is transferred into a Potter-Elvjehm homogenizer and homogenized with 3 strokes. The homogenate is centrifuged at 1500×g for 10 min at 4° C. (3100 rpm using SORVAL, model RT6000D, using a rotor for 50 mL tubes). The pellet is discarded. The supernatant is centrifuged at 100,000×g for 60 min. at 4° C. (Beckman L8-80M ultracentrifuge; spin at 37,500 rpm with rotor type 70 Ti for 50 mL tubes; 38,000 rpm with rotor type 8OTi for 15 mL tubes; or 35,800 rpm with rotor type 45Ti). The supernantant is discarded and the pellet suspended in 3 to 4 mL of Tris buffer (50 mM TRIS-HCl, pH 7.4). The protein content is estimated by the Bradford or Lowry method. The volume of the membrane suspension is adjusted with the membrane buffer (50 mM Tris-HCl containing 0.1% BSA and 0.1 mM PMSF) to give 3.0 mg/mL (or as appropriate) of protein. The membranes are aliquoted and stored at −70° C.
In wells of a 96-well format microtiter plate, is added 90, 110 or 130 μL (to make up a final volume of 200 μL) of assay buffer containing 50 mM of Tris-HCl (pH 7.4), […], 1 mg % aprotinin, 1 mg % leupeptin, 2 mg % 1,10-phenanthroline, 10 mg % trypsin inhibitor, and 0.1 mM PMSF. The inhibitors are added on the day of the experiment. The components are mixed at room temperature, and then kept in ice bath following adjustment of the pH to 7.4. […] For oxytocin and other peptide ligands, 20 μL of 50% DMSO is added and the assay buffer volume is adjusted accordingly. To each well is added 50 μL of frozen membrane suspension thawed immediately prior to use and diluted in assay buffer to the required concentration (equivalent to 25 to 50 μg of protein/well as needed). 20 μL of 8 nM [^3H]oxytocin in the assay buffer, prepared just before use is added and incubated at room temperature for 60 min. shaking the plate on a mechanical shaker for the first 15 min. The incubation is stopped by rapid filtration of the plate contents followed by washing with ice-cold buffer (50 mM Tris-HCl, pH 7.4) using a cell harvester (Tomtek and Printed filtermat-B filter paper). The filter paper is thoroughly dried (7–12 min. in a microwave oven) and impregnated with MeltiLex B/H melt-on scintillation wax sheets and the radioactivity counted in a betaplate scintillation counter.
Binding data is either reported as percent inhibition at a certain concentration or if an IC50 was calculated, as a nanomolar concentration.

| inhibition at 0.1 µM | SMILES | OT % inhibition @ 100 nM |
| --- | --- | --- |
| 46% | COc1ccccc1-c1ccc(C(=O)N2Cc3ccc(C(=O)NCc4cccnc4)n3Cc3ccccc32)cc1C [Example 36, 10-[(2′-Methoxy-2-methyl-[1,1′-biphenyl]-4-yl)carbonyl]-N-(3-pyridinylmethyl)-10,11-dihydro-5H-pyrrolo[2,1-c][1,4]benzodiazepine-3-carboxamide] |  |
| 50% | COc1cccc(-c2ccc(C(=O)N3Cc4ccc(C(=O)NCc5ccccn5)n4Cc4ccccc43)cc2C)c1 [Example 25, 10-[(3′-Methoxy-2-methyl-[1,1′-biphenyl]-4-yl)carbonyl]-N-(2-pyridinylmethyl)-10,11-dihydro-5H-pyrrolo[2,1-c][1,4]benzodiazepine-3-carboxamide] |  |
| 18% | COc1cccc(-c2cc(OC)c(C(=O)N3Cc4ccc(C(=O)NCc5cccnc5)n4Cc4ccccc43)cc2Cl)c1 [Example 43, 10-[(6-Chloro-3,3′-dimethoxy-[1,1′-biphenyl]-4-yl)carbonyl]-N-(3-pyridinylmethyl)-10,11-dihydro-5H-pyrrolo[2,1-c][1,4]benzodiazepine-3-carboxamide] |  |
| 55% | COc1cc(C(=O)N2Cc3ccc(C(=O)NCCc4ccccn4)n3Cc3ccccc32)ccc1-c1ccccc1C [Example 54, 10-[(2-Methoxy-2′-methyl-[1,1′-biphenyl]-4-yl)carbonyl]-N-[2-(2-pyridinyl)ethyl]-10,11-dihydro-5H-pyrrolo[2,1-c][1,4]benzodiazepine-3-carboxamide] |  |
| 1% | O=C(NCc1cccnc1)c1ccc2n1Cc1ccccc1N(C(=O)c1ccc(-c3cccc4ccccc34)cc1Cl)C2 [Example 47, 10-[2-Chloro-4-(naphthalen-1-yl)benzoyl]-N-(3-pyridinylmethyl)-10,11-dihydro-5H-pyrrolo[2,1-c][1,4]benzodiazepine-3-carboxamide] |  |
| 57% | COc1cc(C(=O)N2Cc3ccc(C(=O)N4CCN(c5ccncc5)CC4)n3Cc3ccccc32)ccc1-c1cccc2ccccc12 [Example 121, {10-[3-Methoxy-4-(naphthalen-1-yl)benzoyl]-10,11-dihydro-5H-pyrrolo[2,1-c][1,4]benzodiazepin-3-yl}[4-(4-pyridinyl)-1-piperazinyl]methanone] |  |
| 96% | COc1ccccc1-c1ccc(C(=O)N2Cc3ccc(C(=O)N4CCCCC4c4cccnc4)n3Cc3ccccc32)cc1OC (stereo not drawn) [Example 141, {10-[(2,2′-Dimethoxy-[1,1′-biphenyl]-4-yl)carbonyl]-10,11-dihydro-5H-pyrrolo[2,1-c][1,4]benzodiazepin-3-yl}[2-(3-pyridinyl)-1-piperidinyl]methanone] |  |
|  | Cc1cc(C(=O)N2Cc3ccc(C(=O)NCCc4ccccn4)n3Cc3ccccc32)ccc1-c1ccccc1C(F)(F)F [Example 61, 10-{[2-Methyl-2′-trifluoromethyl=[1,1′-biphenyl]-4-yl]carbonyl}-N-[2-(2-pyridinyl)ethyl]-10,11-dihydro-5H-pyrrolo[2,1-c][1,4]benzodiazepine-3-carboxamide] | 26% |
| 87% | COc1cccc(-c2cc(OC)c(C(=O)N3Cc4ccc(C(=O)N(C)CCc5ccncc5)n4Cc4ccccc43)cc2Cl)c1 [Example 133, 10-[(6-Chloro-3,3′-dimethoxy-[1,1′-biphenyl]-4-yl)carbonyl]-N-methyl-N-[2-(4-pyridinyl)ethyl]-10,11-dihydro-5H-pyrrolo[2,1-c][1,4]benzodiazepine-3-carboxamide] |  |
| 94% | COc1ccccc1-c1ccc(C(=O)N2Cc3ccc(C(=O)N(C)CCc4ccncc4)n3Cc3ccccc32)cc1OC [Example 125, 10-[(2,2′-Dimethoxy-[1,1′-biphenyl]-4-yl)carbonyl]-N-methyl-N-[2-(4-pyridinyl)ethyl]-10,11-dihydro-5H-pyrrolo[2,1-c][1,4]benzodiazepine-3-carboxamide] |  |
| 36% | CN(Cc1cccnc1)C(=O)c1ccc2n1Cc1ccccc1N(C(=O)c1ccc(-c3cccc4ccccc34)cc1Cl)C2 [Example 111, 10-[2-Chloro-4-(naphthalen-1-yl)benzoyl]-N-methyl-N-(3-pyridinylmethyl)-10,11-dihydro-5H-pyrrolo[2,1-c][1,4]benzodiazepine-3-carboxamide] |  |
| 60% | Cc1ccccc1-c1ccc(C(=O)N2Cc3ccc(C(=O)NCc4cccnc4)n3Cc3ccccc32)cc1C [Example 37, 10-[(2,2′-Dimethyl-[1,1′-biphenyl]-4-yl)carbonyl]-N-(3-pyridinylmethyl)-10,11-dihydro-5H-pyrrolo[2,1-c][1,4]benzodiazepine-3-carboxamide] |  |
| 67% | Cc1ccccc1-c1ccc(C(=O)N2Cc3ccc(C(=O)NCCc4ccccn4)n3Cc3ccccc32)cc1C [Example 50, 10-[(2,2′-Dimethyl-[1,1′-biphenyl]-4-yl)carbonyl]-N-[2-(2-pyridinyl)ethyl]-10,11-dihydro-5H-pyrrolo[2,1-c][1,4]benzodiazepine-3-carboxamide] |  |
| 31% | COc1cccc(-c2ccc(C(=O)N3Cc4ccc(C(=O)NCCc5ccccn5)n4Cc4ccccc43)cc2C)c1 [Example 51, 10-[(3′-Methoxy-2-methyl-[1,1′-biphenyl]-4-yl)carbonyl]-N-[2-(2-pyridinyl)ethyl]-10,11-dihydro-5H-pyrrolo[2,1-c][1,4]benzodiazepine-3-carboxamide] |  |
| 11% | O=C(NCCc1ccccn1)c1ccc2n1Cc1ccccc1N(C(=O)c1ccc(-c3cccc4ccccc34)cc1Cl)C2 [Example 60, 10-[2-Chloro-4-(naphthalen-1-yl)benzoyl]-N-[2-(2-pyridinyl)ethyl]-10,11-dihydro-5H-pyrrolo[2,1-c][1,4]benzodiazepine-3-carboxamide] |  |
| 22% | COc1cc(C(=O)N2Cc3ccc(C(=O)N4CCN(c5ccccn5)CC4)n3Cc3ccccc32)ccc1-n1c(C)ccc1C [Example 145, {10-[4-(2,5-Dimethyl-1H-pyrrol-1-yl)-3-methoxybenzoyl]-10,11-dihydro-5H-pyrrolo[2,1-c][1,4]benzodiazepin-3-yl}[4-(pyridin-2-yl)-1-piperazinyl]methanone] |  |
| 27% | Cc1cc(C(=O)N2Cc3ccc(C(=O)NCc4ccccn4)n3Cc3ccccc32)ccc1-c1ccccc1C(F)(F)F [Example 35, 10-{[2-Methyl-2′-trifluoromethyl-[1,1′-biphenyl]-4-yl]carbonyl}-N-(2-pyridinylmethyl)-10,11-dihydro-5H-pyrrolo[2,1-c][1,4]benzodiazepine-3-carboxamide] |  |
| 83% | COc1cc(-c2ccccc2C)c(Cl)cc1C(=O)N1Cc2ccc(C(=O)N3CCN(c4ccncc4)CC3)n2Cc2ccccc21 [Example 119, {10-[(6-Chloro-3-methoxy-2′-methyl-[1,1′-biphenyl]-4-yl)carbonyl]-10,11-dihydro-5H-pyrrolo[2,1-c][1,4]benzodiazepin-3-yl}[4-(4-pyridinyl)-1-piperazinyl]methanone] |  |

Reference: patent US7064120B2, “Tricyclic pyridyl carboxamides and derivatives thereof tocolytic oxytocin receptor antagonists” (Wyeth, priority 2001, dated 2006)
